Measured values reported in patent US20220096473A1, “METHOD FOR TREATING AN ACUTE MYELOID LEUKEMIA” (PTC THERAPEUTICS, INC., priority 2019, published 2022).

Tests used:
[1] = system: MOLT human acute lymphoblastic leukemia (ALL) tumor cells; experiment: ALL mouse model, IV-inoculated MOLT human ALL tumor cells in NOD-SCID mice, survival; type: in vivo; details: vehicle 70 days
Protocol: FIG. 6. Shown is a survival curve for an in vivo ALL (Acute Lymphocytic Leukemia) MOLT-4 (CD3 […]) xenograft tumor NSG mouse model after up to 160 days of treatment with Compound 2 vs. vs. mice treated with vehicle, Compound 1, doxorubicin (Dox) and cytarabine (Ara-C). Under various dosing regimens.
Male NOD-SCID mice were inoculated with MOLT human acute lymphoblastic leukemia (ALL) tumor cells from ATCC (1×10^7 cells in 200 μL PBS) by intravenous (IV) injection of 0.2 ml/mouse. Seven days after tumor inoculation, mice were randomized into seven groups of five mice per group, and each group was dosed as follows: (Group 1) orally administered vehicle of 0.5% HPMC and 0.1% Tween 80 daily, (Group 2) orally administered 10 mg/kg Compound 1 twice per week, (Group 3) orally administered 10 mg/kg Compound 2 daily, (Group 4) administered 1 mg/kg doxorubicin by intraperitoneal (IP) injection once per week, (Group 5) administered 0.5 mg/kg doxorubicin by IP injection once per week, (Group 6) administered 50 mg/kg Ara-C twice per week by IP injection, and (Group 7) administered 70 mg/kg Ara-C by IP injection once per week.

[2] = system: P31-Fujioka cell line; experiment: P31-Fujioka cell line xenograft survival in immunodeficient NRG-SGM3 mice; type: in vivo, mouse; details: oral Compound 1 from ten days after injection, up to 34 days of treatment, n=5 mice per group, P<0.002
Protocol: FIG. 1. Shown is a survival curve for an in vivo P31-Fujioka cell line xenograft tumor […] mouse model after up to 34 days of treatment with Compound 1 vs. vehicle treated animals (n=5 mice per group, *P<0.002).
Immunodeficient mice (NRG-SGM3) were injected with the P31-Fujioka cell line. Ten days after injection, engraftment of P31 cells in mice was confirmed by flow-cytometric assessment of the human CD45 marker (data not shown). One cohort of mice was orally administered Compound 1 and an age and engraftment matched hohort was administered vehicle control.

[3] = system: leukemia cell growth; details: mouse xenograft models; cited from earlier work
[4] = system: MOLM13 human AML tumor cells; experiment: AML mouse model, IV-inoculated human AML tumor cells in NOD-SCID mice, survival; type: in vivo
Protocol: FIG. 3. Shown is a survival curve for an in vivo AML NSG mouse model after up to 75 days of treatment with Compound 1 vs. vehicle treated mice (n=5 in vehicle group and n=2 in Compound 1 group).
FIG. 5. Shown is a survival curve for an in vivo AML NSG mouse model after up to 80 days of treatment with a combination of Compound 1 and Compound 2 vs. mice treated with vehicle, Compound 1 alone and Compound 2 alone
The following study was conducted in a mouse model of acute myeloid leukemia (AML) based on intravenous (IV) injection of human […] into male non-obese diabetic (NOD) severe combined immunodeficiency (SID) mice. MOLT-4 cells are CD3 positive. The NOD-SCID mice were obtained from Jackson Laboratory, Bar Harbor Me.
Male NOD-SCID mice were inoculated with MOLM13 human AML tumor cells from ATCC (5×10^6 cells in 200 μL PBS) by intravenous (IV) injection of 0.2 ml/mouse. Three days after tumor inoculation, mice were randomized into four groups of five mice per group, and each group was dosed as follows once each day: (Group 1) orally administered vehicle (0.5% HPMC), (Group 2) orally administered 12.5 mg/kg of Compound 1 in HPMC, (Group 3) orally administered 10 mg/kg of Compound 2 in HPMC, and (Group 4) orally administered a combination of 12.5 mg/kg of Compound 1 and 10 mg/kg of Compound 2 in HPMC for up to 75 days.

[5] = system: microtubule polymerization; experiment: Mechanistic studies of microtubule polymerization; type: biochemical
Excerpt: In addition, Compound 1 combines additively or synergistically with standard clinical regimens, yielding potent and durable cancer regression.

[6] = system: CALM-AF10-mediated AML; experiment: CALM-AF10-mediated AML leukemogenesis in mouse and human models; details: in vitro and in vivo
[7] = system: p53 mutant mediated AML; details: cited from earlier work

In the case of `Nc1ccn([C@@H]2O[C@H](CO)[C@@H](O)[C@@H]2O)c(=O)n1` [Ara-C, cytarabine], the “maximum number of days of survival” value ([1]; Group 6, 50 mg/kg IP twice per week) is reported as 65 days and the “maximum number of days of survival” value ([1]; Group 7, 70 mg/kg IP once per week) is reported as 70 days.

For `Cc1nc2ccc(F)cc2n1-c1nc(N)c(F)c(Nc2ccc(C(F)(F)F)cc2)n1` [Compound 1, 5-fluoro-2-(6-fluoro-2-methyl-1H-benzo[d]imidazol-1-yl)-N^4-[4-(trifluoromethyl)phenyl]pyrimidine-4,6-diamine], the “latency of disease (survival curve) vs vehicle control” value [2] is given as “significantly delayed the latency of disease”, the “maximum number of days of survival” value ([1]; Group 2, 10 mg/kg orally twice per week) is given as 65 days and the “in vivo anti-leukemia activity” value [3] is given as “inhibited leukemia cell growth in vivo while sparing normal hematopoietic cells”. The “survival vs mice administered Compound 2 alone” value ([4]; 12.5 mg/kg Compound 1 orally once each day) was “survived significantly longer”, the “survival (prolongation of life) vs vehicle” value ([4]; 12.5 mg/kg orally once each day in HPMC, up to 75 days) was “significant prolongation of life” and the microtubule polymerization [5] was “inhibit microtubule polymerization”. The leukemogenesis [6] was “impairs leukemogenesis in vitro and in vivo”, the MCL-1 expression ([7]; p53 mutant mediated AML) was “reduced MCL-1 expression” and the induction of apoptosis ([7]; patient-derived CD34+CD38low/- stem/progenitor cells) was “Apoptosis was induced in a p53-independent manner”.

With `COc1ccc([C@H]2c3[nH]c4ccc(Cl)cc4c3CCN2C(=O)Oc2ccc(Cl)cc2)cc1` [Compound 2, 4-chlorophenyl (S)-6-chloro-1-(4-methoxyphenyl)-1,3,4,9-tetrahydro-2H-pyrido[3,4-b]indole-2-carboxylate] the “maximum number of days of survival” value ([1]; Group 3, 10 mg/kg orally daily) was 160 days.

With `COc1cccc2c1C(=O)c1c(O)c3c(c(O)c1C2=O)C[C@@](O)(C(=O)CO)C[C@@H]3O[C@H]1C[C@H](N)[C@H](O)[C@H](C)O1` [doxorubicin] the “maximum number of days of survival” value ([1]; Group 4, 1 mg/kg IP once per week) was 40 days and the “maximum number of days of survival” value ([1]; Group 5, 0.5 mg/kg IP once per week) was 40 days.
